“And” between values parts separate entries of the source, which are not always exact repeats. Identical values can stand only once.
Experiments:
intact mouse islets = test: Insulin release from intact mouse islets (ELISA); type: cell-based; conditions: 100 μM compound, 60 min incubation
Method: Intact pancreatic islets were isolated from fed NMRI mice (15-18 g) as previously described (Fuhlendorff et al., Diabetes, Vol. 47 (3) pp. 345-351, 1998). Insulin release was measured from groups of 10 size-matched islets, cultured overnight in RPMI-1640 tissue culture medium containing 1% GlutaMAX™ (Gibco BRL),1% penicillin/streptomycin, 7.5% NaHCO3 and 10% new-born calf serum. The islets were washed for 20 minutes in Krebs Ringer Buffer consisting of 115 mM NaCl, 4.7 mM KCl, 2.6 mM CaCl2, 1.2 mM KH2PO4, 1.2 mM MgSO4, 20 mM HEPES, 2 mM glutamine, 5 mM NaHCO3, 0.2% human serum albumin and 1% penicillin/streptomycin) and 2.5 mM, 5 mM or 10 mM D-glucose. Afterwashing, the islet were incubated for one hour at +37° C. in Krebs Ringer Buffer containing the test compound at 100 μM and glucose at 2.5 mM, 5 mM or 10 mM. After the one-hour incubation, the medium was aspirated and kept at −20° C. until assayed for insulin using the following ELISA technique. Immuno 96 well paltes (MaxiSorPTM, NUNC, Denmark) were coated over night at 4° C. with a rabbit-anti-guinea pig-lgG (Dako) antibody diluted 1:1000 in 0.1 M NaHCO3 (pH 9.8). After washing 4 times in 0.15 M NaCl and 0.005% Tween-20 the plates were incubated with guinea pig-anti-insulin diluted in phosphate buffered saline (incubation buffer; pH 7.4) containing 0.1% Tween-20 and 0.5% human serum albumin over night. After washing the sambles were incubated for 1.5 h with relevant samples and peroxidase-insulin (Sigma) diluted 1:10000 in PBS-DIL. The samples we-were then washed and developed with TMBPlus-substrated as described by the manufacture (KEM EN TEC, Denmark). The amount of insulin was quantified from a standard curve after reading the samples at 450 nm.
Elevating the external glucose concentration from 2.5 mM to 5 mM was not associated with an increase in insulin release whereas a 90% stimulation was observed following application of 10 mM glucose (P<0.05; n=8).

[1] = target: T1, ATP-sensitive K+-channels (KATP-channels) (Mus musculus, UniProt Q61743); test: Whole-cell ATP-sensitive K+ current (KATP-channel activity) in single mouse β-cells; type: cell-based; conditions: 100 μM compound; six experiments; cells dialysed with 0.3 mM ATP and 0.3 mM ADP
T1 construct: Pancreatic islets were isolated from fed NMRI mice (15-23 g); endogenous in cells; host or cells: single beta-cells dispersed from pancreatic islets of NMRI mice
From the text: Pancreatic islets were isolated from fed NMRI mice (15-23 g). Briefly, the mice were stunned by a blow against the head and killed by cervical dislocation. The pancreas was quickly removed and pancreatic islets were isolated by collagenase (Sigma) digestion (Gromada et al. J. Physiol., Vol. 518 (3) pp. 745-759, 1999). For insulin release experiments, the islets were kept in RPMI-1640 tissue culture medium overnight before use. […]
Patch pipettes were drawn from borosilicate glass capillaries. […] The currents were recorded using an Axopatch 200B patch clamp amplifier (Axon Instruments, Foster City, Calif., USA), digitized and stored in a computer using the Digidata AD-converter and the software pClamp (version 6.0; Axon Instruments). Alternatively, KATP-currents were recorded using an EPC-9 patch clamp amplifier and the Pulse software (v. 8.01; HEKA Elektronik, Lamprecht/Pfalz, Germany). Exocytosis was monitored as increases in cell membrane capacitance (Neher & Marty Proc. Natl. Acad, Sci. USA, Vol. 79, pp. 6712-6716,1982) using the standard whole-cell configuration of the patch-clamp technique and an EPC-9 patch-clamp amplifier and the Pulse software (v. 8.01; HEKA Elektronik). […]

T1 sequence (Q61743 whole entry): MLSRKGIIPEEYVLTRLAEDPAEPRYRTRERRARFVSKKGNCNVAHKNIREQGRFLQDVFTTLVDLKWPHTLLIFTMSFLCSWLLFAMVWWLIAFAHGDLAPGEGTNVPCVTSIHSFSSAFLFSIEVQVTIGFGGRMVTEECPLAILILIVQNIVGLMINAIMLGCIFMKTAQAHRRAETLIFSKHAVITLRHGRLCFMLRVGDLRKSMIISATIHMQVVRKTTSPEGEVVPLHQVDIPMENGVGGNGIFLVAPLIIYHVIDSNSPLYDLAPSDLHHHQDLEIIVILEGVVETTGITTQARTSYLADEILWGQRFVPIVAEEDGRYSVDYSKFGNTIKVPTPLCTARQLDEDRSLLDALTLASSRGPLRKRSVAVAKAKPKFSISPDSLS
T1 sequence (B2RUS7 1-1588 partner): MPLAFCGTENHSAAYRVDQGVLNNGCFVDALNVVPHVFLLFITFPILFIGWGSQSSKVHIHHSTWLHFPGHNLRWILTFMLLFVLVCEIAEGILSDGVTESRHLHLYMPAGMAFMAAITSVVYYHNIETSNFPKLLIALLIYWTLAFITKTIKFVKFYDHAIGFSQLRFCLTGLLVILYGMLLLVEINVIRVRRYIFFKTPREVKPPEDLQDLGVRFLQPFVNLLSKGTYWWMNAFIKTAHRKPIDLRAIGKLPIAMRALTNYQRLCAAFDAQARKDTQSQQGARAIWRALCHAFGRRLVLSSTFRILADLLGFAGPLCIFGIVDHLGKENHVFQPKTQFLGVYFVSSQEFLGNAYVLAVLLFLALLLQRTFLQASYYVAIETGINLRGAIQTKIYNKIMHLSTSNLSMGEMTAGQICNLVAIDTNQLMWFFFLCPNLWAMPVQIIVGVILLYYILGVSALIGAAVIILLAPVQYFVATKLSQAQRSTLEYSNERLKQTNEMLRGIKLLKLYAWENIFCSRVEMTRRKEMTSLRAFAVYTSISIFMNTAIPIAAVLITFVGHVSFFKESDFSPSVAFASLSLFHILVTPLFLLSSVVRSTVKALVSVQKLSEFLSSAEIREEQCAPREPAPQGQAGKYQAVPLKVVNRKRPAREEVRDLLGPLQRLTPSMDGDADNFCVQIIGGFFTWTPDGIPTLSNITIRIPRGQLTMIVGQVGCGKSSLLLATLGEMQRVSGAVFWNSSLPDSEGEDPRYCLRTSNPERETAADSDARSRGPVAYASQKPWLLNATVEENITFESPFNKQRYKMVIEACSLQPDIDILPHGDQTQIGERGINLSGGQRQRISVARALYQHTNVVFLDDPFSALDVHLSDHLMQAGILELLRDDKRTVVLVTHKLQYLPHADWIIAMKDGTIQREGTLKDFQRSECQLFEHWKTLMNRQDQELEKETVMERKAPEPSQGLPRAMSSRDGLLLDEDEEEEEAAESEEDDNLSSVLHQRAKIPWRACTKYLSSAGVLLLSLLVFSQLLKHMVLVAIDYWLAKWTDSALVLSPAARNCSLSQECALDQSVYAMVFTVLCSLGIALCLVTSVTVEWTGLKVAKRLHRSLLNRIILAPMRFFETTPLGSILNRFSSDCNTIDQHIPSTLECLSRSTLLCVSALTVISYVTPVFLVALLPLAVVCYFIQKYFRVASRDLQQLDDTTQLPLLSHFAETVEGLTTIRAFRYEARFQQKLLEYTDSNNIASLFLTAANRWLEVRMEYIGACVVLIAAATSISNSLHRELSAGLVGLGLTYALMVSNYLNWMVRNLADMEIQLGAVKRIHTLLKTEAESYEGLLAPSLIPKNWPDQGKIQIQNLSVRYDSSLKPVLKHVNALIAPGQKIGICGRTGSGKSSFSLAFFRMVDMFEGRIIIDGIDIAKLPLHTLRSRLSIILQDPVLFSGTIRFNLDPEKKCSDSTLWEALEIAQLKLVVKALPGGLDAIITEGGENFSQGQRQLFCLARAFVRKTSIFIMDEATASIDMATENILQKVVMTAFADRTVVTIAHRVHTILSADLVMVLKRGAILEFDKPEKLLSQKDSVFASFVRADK

COc1cccc(C(CC2=NCCN2)c2ccccn2)c1 (single isomer, unassigned; (-)) [compound (Ex 2), (−)-2-(2-(4,5-Dihydro-1H-imidazol-2-yl)-1-(3-methoxyphenyl)ethyl)pyridine]
effect on insulin release (intact mouse islets; 2.5 mM glucose): does not affect insulin release
effect on insulin release (intact mouse islets; 5 mM glucose): does not affect insulin release
stimulation of insulin secretion (intact mouse islets; 10 mM glucose, P<0.01, n=8): 220%
whole-cell KATP current / channel activity, % of prestimulatory level [1]: 90±4% and 90+4%
